Assay [1] deals with deposition of melanin pigmentation. Put plainly: Examination for depigmentation effect: lotion applied to skin after sunlight exposure, judged by the subjects. Format: in vivo. As to conditions: for DEPI[…] / DEPIGMENTATION EFFECT: lotion with 1.0 weight% compound; for effect to prevent the deposition of melanin pigmentation after the skin was exposed to the sunlight: in words, text summary of the tables, test lotions compared with hydroquinone, tranexamic acid and no compound. Here is the method:
60 subjects were disposed under sunlight for 4 hours in summer (2 hours × 2 days). The lotions were applied to skin of medial brachia for once in each morning and evening from 5 days after the day when the skin was exposed to the sun light for eight weeks. The one group consists of 10 subjects and six groups were given for the examination in accordance with the following prescriptions. […] The aqueous phase and the alcohol phase were prepared respectively, and both phase were mixed and dissolved. […] X: The number of subjects who judged the result was "extremely effective" and "effective" were less than 30 %. TABLE 1 Depigmentation effect was examined by using the following external preparations for skin in accordance with the above described condition. […] The alcohol phase and aqueous phase were prepared respectively, and both phase were mixed and dissolved. TABLE 3 Depigmentation effect was examined by using the following external preparations for skin in accordance with the above described condition. […] The alcohol phase and aqueous phase were prepared respectively, and both phase were mixed and dissolved.

For another assay, the system named is face of subjects. In words: Examination for skin care effect: half-face application against comparison 1, judged by the subjects. Format: in vivo, women. Here is the method:
One group of subjects consists of ten women and 3 groups of the subjects were given for the examination.
The effectiveness of three items (moisturising effect, texture of skin surface, maintenance (one day) of moisturising effect) were evaluated according to the following standards.
Ⓞ: The number of subjects who judged the result was "extremely effective" and "effective" were not less than 80 %. ○: The number of subjects who judged the result was "extremely effective" and "effective" were from 50% to 80%. △: The number of subjects who judged the result was "extremely effective" and "effective" were from 30% to 50%. X: The number of subjects who judged the result was "extremely effective " and "effective" were less than 30%.
Skin care effect of the examples was examined in accordance with the above-mentioned condition.

[2] abbreviates: TABLE 1, skin of medial brachia, morning and evening for eight weeks from 5 days after sunlight exposure (4 hours), 10 subjects per group.
Where [3] appears, read: TABLE 3, same condition as TABLE 1.
Where [4] appears, read: TABLE 5, same condition as TABLE 1.
Setting [5] is: TABLE 6, lotion with 1.0 weight% compound, same condition as TABLE 2.
The mark [6] stands for this setting: TABLE 2, lotion with 1.0 weight% compound on left half of face, every morning and night for two weeks, ten women per group.
[7] abbreviates: TABLE 2, maintenance (one day), lotion with 1.0 weight% compound on left half of face, every morning and night for two weeks, ten women per group.
Setting [8] is: TABLE 4, lotion with 1.0 weight% compound, same condition as TABLE 2.

With `Oc1ccc(O)cc1` [COMP.2, hydroquinone, reference compound], the “DEPI[…]” value in assay [1] (setting [2]) was “△ (The number of subjects who judged the result was "extremely effective" and "effective" were from 30% to 50%.)”; in assay [1] (setting [3]), “△ (The number of subjects who judged the result was "extremely effective" and "effective" were from 30% to 50%.)”; in assay [1] (setting [4]), “△ (The number of subjects who judged the result was "extremely effective" and "effective" were from 30% to 50%.)”.
“4'-hydroxy phenyl trans-4-aminomethyl cyclohexane carboxylate hydrochloride [EXM.3-2]”: in assay [1] (setting [4]), the “DEPIGMENTATION EFFECT” value was “Ⓞ (The number of subjects who judged the result was "extremely effective" and "effective" were not less than 80%.)”. In the assay with face of subjects (setting [5]), the “MAINTENANCE OF MOISTURISING EFFECT” value was “Ⓞ (The number of subjects who judged the result was "extremely effective" and "effective" were not less than 80 %.)”; the “MOISTURISING EFFECT” value was “Ⓞ (The number of subjects who judged the result was "extremely effective" and "effective" were not less than 80 %.)”; the “TEXTURE OF SKIN SURFACE” value was “Ⓞ (The number of subjects who judged the result was "extremely effective" and "effective" were not less than 80 %.)”.
As for `NC[C@H]1CC[C@H](C(=O)Oc2ccc(O)cc2C(=O)O)CC1` [EXM.1-1, 2-(trans-4-aminomethylcyclohexylcarbonyloxy)-5-hydroxy benzoic acid], the “DEPIGMENTATION EFFECT” value in assay [1] (setting [2]) was “Ⓞ (The number of subjects who judged the result was "extremely effective" and "effective" were not less than 80%.)”. For the same molecule, the “effect to prevent the deposition of melanin pigmentation after the skin was exposed to the sunlight” value (from here on “effect to prevent the deposition”) in assay [1] is “excellent”. Besides, in the assay with face of subjects (setting [6]), the “MOISTURISING EFFECT” value was “Ⓞ (The number of subjects who judged the result was "extremely effective" and "effective" were not less than 80 %.)”; the “TEXTURE OF SKIN SURFACE” value is “Ⓞ (The number of subjects who judged the result was "extremely effective" and "effective" were not less than 80 %.)”. In addition, in the assay with face of subjects (setting [7]), the “MAINTENANCE OF MOISTURISING EFFECT” value was “Ⓞ (The number of subjects who judged the result was "extremely effective" and "effective" were not less than 80 %.)”.
In the case of `NC[C@H]1CC[C@H](C(=O)O)CC1` [COMP.3, tranexamic acid], the “DEPIGMENTATION EFFECT” value in assay [1] (setting [3]) was “○ (The number of subjects who judged the result was "extremely effective" and "effective" were from 50% to 80%.)”; in assay [1] (setting [4]) it was “△ (The number of subjects who judged the result was "extremely effective" and "effective" were from 30% to 50%.)”.
In the case of `NC[C@H]1CC[C@H](C(=O)Oc2ccc(O)c(C(=O)O)c2)CC1` [EXM.1-2, 5-(trans-4-aminomethylcyclohexylcarbonyloxy)-2-hydroxy benzoic acid], in assay [1] (setting [2]), the “DEPIGMENTATION EFFECT” value is “Ⓞ (The number of subjects who judged the result was "extremely effective" and "effective" were not less than 80%.)”. Also, the “effect to prevent the deposition” value in assay [1] is “excellent”. For the same molecule, in the assay with face of subjects (setting [6]), the “MOISTURISING EFFECT” value was “Ⓞ (The number of subjects who judged the result was "extremely effective" and "effective" were not less than 80 %.)”; the “TEXTURE OF SKIN SURFACE” value is “Ⓞ (The number of subjects who judged the result was "extremely effective" and "effective" were not less than 80 %.)”. In addition, the “MAINTENANCE OF MOISTURISING EFFECT” value in the assay with face of subjects (setting [7]) was “Ⓞ (The number of subjects who judged the result was "extremely effective" and "effective" were not less than 80 %.)”.
Regarding `Cl.NC[C@H]1CC[C@H](C(=O)Oc2ccc(O)cc2C(=O)O)CC1` [EXM.1-3, 2-(trans-4-aminomethylcyclohexylcarbonyloxy)-5-hydroxy benzoic acid hydrochloride], in assay [1] (setting [2]), the “DEPIGMENTATION EFFECT” value was “Ⓞ (The number of subjects who judged the result was "extremely effective" and "effective" were not less than 80%.)”. The “effect to prevent the deposition” value in assay [1] is given as “excellent”. Besides, in the assay with face of subjects (setting [6]), the “MOISTURISING EFFECT” value is “Ⓞ (The number of subjects who judged the result was "extremely effective" and "effective" were not less than 80 %.)”; the “TEXTURE OF SKIN SURFACE” value is “Ⓞ (The number of subjects who judged the result was "extremely effective" and "effective" were not less than 80 %.)”. Also, the “MAINTENANCE OF MOISTURISING EFFECT” value in the assay on face of subjects (setting [7]) is “Ⓞ (The number of subjects who judged the result was "extremely effective" and "effective" were not less than 80 %.)”.
As for `NC[C@H]1CC[C@H](C(=O)Oc2ccc(O)cc2)CC1` [EXM.3-1, 4'-hydroxy phenyl trans-4-aminomethyl cyclohexane carboxylate], in assay [1] (setting [4]), the “DEPIGMENTATION EFFECT” value was “Ⓞ (The number of subjects who judged the result was "extremely effective" and "effective" were not less than 80%.)”. Also, in the assay on face of subjects (setting [5]), the “MAINTENANCE OF MOISTURISING EFFECT” value is “Ⓞ (The number of subjects who judged the result was "extremely effective" and "effective" were not less than 80 %.)”; the “MOISTURISING EFFECT” value was “Ⓞ (The number of subjects who judged the result was "extremely effective" and "effective" were not less than 80 %.)”; the “TEXTURE OF SKIN SURFACE” value was “Ⓞ (The number of subjects who judged the result was "extremely effective" and "effective" were not less than 80 %.)”.
As for `NC[C@H]1CC[C@H](C(=O)NC[C@H]2CC[C@H](C(=O)O)CC2)CC1` [EXM.2-1, Trans-4-(trans-4-aminomethylcyclohexanecarbonyl) aminomethyl cyclohexane carboxylic acid], the “DEPIGMENTATION EFFECT” value in assay [1] (setting [3]) is “Ⓞ (The number of subjects who judged the result was "extremely effective" and "effective" were not less than 80%.)”. Further, in the assay with face of subjects (setting [8]), the “MAINTENANCE OF MOISTURISING EFFECT” value is “Ⓞ (The number of subjects who judged the result was "extremely effective" and "effective" were not less than 80 %.)”; the “MOISTURISING EFFECT” value was “Ⓞ (The number of subjects who judged the result was "extremely effective" and "effective" were not less than 80 %.)”; the “TEXTURE OF SKIN SURFACE” value was “Ⓞ (The number of subjects who judged the result was "extremely effective" and "effective" were not less than 80 %.)”.

The values above are taken from EP0604667A1, “TRANEXAMIC ACID DERIVATIVE AND DERMATOLOGIC PREPARATION CONTAINING THE SAME” (SHISEIDO COMPANY LIMITED, priority 1992, dated 1994).
